For one assay, the system named is PC3 cells. In words: Specific CTL activity against HLA-A2 negative, TTK positive control tumor cell line PC-3. The assay is classed as cell-based, human. The source says:
(§1) T2 (HLA-A2), human B-lymphoblastoid cell line and COST, African green monkey kidney cell line, were purchased from ATCC. HLA-A2 positive and TTK positive tumor cell line, H1650, was purchased from ATCC. HLA-A2 negative and TTK positive cell lines, PC-3 and TE-1, were purchased from JCRB Cell bank and RIKEN Cell Bank, respectively.
(§2) The established CTL lines and clones raised against each peptide were examined for the ability to recognize target cells that express TTK and HLA-A*0201 molecule. […] COS7 cells transfected with either full length of TTK genes or HLA-A*0201 were prepared as controls. […] And then this peptide-HLA complex was recognized by the CTLs.

For a further assay, the system named is H1650 cells. In words: Specific CTL activity against HLA-A2 positive, TTK positive tumor cell line. Format: cell-based, human. Particulars: FIG. 3c.
Source text: as §1, §2

Assay [1] deals with peptide-pulsed T2 cells. Put plainly: IFN-gamma ELISA assay of established CTL lines and CTL clone. Format: cell-based, human. Particulars: for IFN-gamma production of CTL lines: CTL line established with the peptide, target cells pulsed with corresponding peptide vs without peptide pulse. The procedure: CTLs were expanded in culture using the method similar to the one described by Riddell et al. (Walter E A et al., N Engl J Med 1995 Oct. 19, 333(16): 1038-44; Riddell S R et al., Nat Med 1996 February, 2(2): 216-23). A total of 5×10^4 CTLs were resuspended in 25 ml of AIM-V/5% AS medium with 2 kinds of human B-lymphoblastoid cell lines, inactivated by Mitomycin C, in the presence of 40 ng/ml of anti-CD3 monoclonal antibody (Pharmingen). One day after initiating the cultures, 120 IU/ml of IL-2 were added to the cultures. The cultures were fed with fresh AIM-V/5% AS medium containing 30 IU/ml of IL-2 on days 5, 8 and 11 (Tanaka H et al., Br J Cancer 2001 Jan. 5, 84(1): 94-9; Umano Y et al., Br J Cancer 2001 Apr. 20, 84(8): 1052-7; Uchida N et al., Clin Cancer Res 2004 Dec. 15, 10(24): 8577-86; Suda T et al., Cancer Sci 2006 May, 97(5): 411-9; Watanabe T et al., Cancer Sci 2005 August, 96(8): 498-506).
The dilutions were made to have 0.3, 1, and 3 CTLs/well in 96 round-bottomed micro titer plate (Nalge Nunc International). CTLs were cultured with 1×10^4 cells/well of 2 kinds of human B-lymphoblastoid cell lines, 30 ng/ml of anti-CD3 antibody, and 125 U/ml of IL-2 in a total of 150 micro-l/well of AIM-V Medium containing 5% AS. 50 micro-1/well of IL-2 were added to the medium 10 days later so to reach a final concentration of 125 U/ml IL-2. CTL activity was tested on the 14th day, and CTL clone was expanded using the same method as described above (Uchida N et al., Clin Cancer Res 2004 Dec. 15, 10(24): 8577-86; Suda T et al., Cancer Sci 2006 May, 97(5): 411-9; Watanabe T et al., Cancer Sci 2005 August, 96(8): 498-506).
(§3) Specifically, peptide-pulsed T2 (1×10^4/well) was prepared as stimulator cells. Cultured cells in 48 wells were used as responder cells. IFN-gamma ELISPOT assay and IFN-gamma ELISA assay were performed under manufacture procedure.
For orientation: ELISA stands for enzyme-linked immunosorbent assay.

The subject of a further assay is TE1 cells. In words: Specific CTL activity against HLA-A2 negative, TTK positive control tumor cell line TE-1. The assay is classed as cell-based, human.
Source text: as §1, §2

Assay [2] has as its system peptide-pulsed T2 cells. Put plainly: IFN-gamma ELISPOT assay on CTLs induced with TTK peptides. The assay is classed as cell-based, human. Conditions: wells of CTLs stimulated with the peptide, against peptide-pulsed target cells compared to control wells.
Source text: Monocyte-derived dendritic cells (DCs) were used as antigen-presenting cells (APCs) to induce cytotoxic T lymphocyte (CTL) responses against peptides presented on human leukocyte antigen (HLA). DCs were generated in vitro as described elsewhere (Nakahara S et al., Cancer Res 2003 Jul. 15, 63(14): 4112-8). Specifically, peripheral blood mononuclear cells (PBMCs) isolated from a normal volunteer (HLA-A*0201 positive) by Ficoll-Plaque (Pharmacia) solution were separated by adherence to a plastic tissue culture dish (Becton Dickinson) so as to enrich them as the monocyte fraction. The monocyte-enriched population was cultured in the presence of 1,000 U/ml of granulocyte-macrophage colony-stimulating factor (GM-CSF) (R&D System) and 1,000 U/ml of interleukin (IL)-4 (R&D System) in AIM-V Medium (Invitrogen) containing 2% heat-inactivated autologous serum (AS). After 7 days of culture, the cytokine-induced DCs were pulsed with 20 micro-g/ml of each of the synthesized peptides in the presence of 3 micro-g/ml of beta 2-microglobulin for 3 hrs at 37 degrees C. in AIM-V Medium. The generated cells appeared to express DC-associated molecules, such as CD80, CD83, CD86 and HLA class II, on their cell surfaces (data not shown). These peptide-pulsed DCs were then inactivated by X-irradiation (20 Gy) and mixed at a 1:20 ratio with autologous CD8+ T cells, obtained by positive selection with CD8 Positive Isolation Kit (Dynal). These cultures were set up in 48-well plates (Corning); each well contained 1.5×10^4 peptide-pulsed DCs, 3×10^5 CD8+ T cells and 10 ng/ml of IL-7 (R&D System) in 0.5 ml of AIM-V/2% AS medium. Three days later, these cultures were supplemented with IL-2 (CHIRON) to a final concentration of 20 IU/ml. On days 7 and 14, the T cells were further stimulated with the autologous peptide-pulsed DCs. The DCs were prepared each time by the same way described above. CTL was tested against peptide-pulsed T2 cells after the 3rd round of peptide stimulation on day 21 (Tanaka H et al., Br J Cancer 2001 Jan. 5, 84(1): 94-9; Umano Y et al., Br J Cancer 2001 Apr. 20, 84(8): 1052-7; Uchida N et al., Clin Cancer Res 2004 Dec. 15, 10(24): 8577-86; Suda T et al., Cancer Sci 2006 May, 97(5): 411-9; Watanabe T et al., Cancer Sci 2005 August, 96(8): 498-506).
as §3

Assay [3] relates to COS7 cells transfected with either full length of TTK genes or HLA-A*0201. In words: Specific CTL activity against control COS7 transfectants. Format: cell-based, African green monkey. Particulars: CTL line and clone; COS7 expressing either TTK or HLA-A*0201 only.
Source text: (§4) The cDNA encoding an open reading frame of target genes or HLA-A*0201 was amplified by PCR. The PCR-amplified products were cloned into a vector. The plasmids were transfected into COS7, which is the target genes and HLA-A*0201-negative cell line, using lipofectamine 2000 (Invitrogen) according to the manufacturer's recommended procedures. After 2 days from transfection, the transfected cells were harvested with versene (Invitrogen) and used as the target cells (5×10^4 cells/well) for CTL activity assay.
as §2

The subject of assay [4] is COS7 cells transfected with both the full length of TTK and HLA-A*0201 gene. In words: Specific CTL activity against target cells expressing TTK and HLA-A*0201. Format: cell-based, African green monkey.
Source text: as §4, §2

Assay [5] deals with COS7 transfected with both the full length TTK gene and the HLA-A*0201 molecule. Particulars: results of WO2008/102557 duplicated as FIG. 4; cited from earlier work.

These results are taken from patent US8530430B2, “TTK peptides and vaccines including the same” (Oncotherapy Science, Inc., priority 2009, dated 2013).

Regarding “TTK-A02-9-593: nonapeptide derived from TTK, HLA-A2 restricted epitope peptide, SEQ ID NO: 3 (ITDQYIYMV)”, the “Specific CTL activity of CTL clone against control tumor cells” value with PC3 cells and in the assay on TE1 cells was “no significant specific CTL activity was detected” in each case. Besides, the “Specific CTL activity of CTL clone against tumor cell line endogenously expressing both TTK and HLA-A*0201” value with H1650 cells was “specific CTL activity”. For the same substance, the “IFN-gamma production of CTL clone” value with peptide-pulsed T2 cells [1] (CTL clone established by limiting dilution from the CTL line, target cells pulsed with peptide) is “Potent IFN-gamma productions”. Also, in the assay on peptide-pulsed T2 cells [1], the “IFN-gamma production of CTL lines” value was “potent IFN-gamma production”. The “IFN-gamma production of peptide-induced CTLs (peptide specific CTL activity)” value in the assay on peptide-pulsed T2 cells [2] was “potent IFN-gamm production”. For the same substance, the “Specific CTL activity against the controls” value in assay [3] was “no significant specific CTL activity was detected”. Further, in assay [4] (CTL clone stimulated with the peptide as effector cells (FIG. 3b)), the “CTL activity of CTL clone against COS7 cells expressing both TTK and HLA-A*0201” value was “potent CTL activity”. Moreover, in assay [4] (CTL line stimulated with the peptide as effector cells (FIG. 3a)), the “CTL activity of CTL line against COS7 cells expressing both TTK and HLA-A*0201” value is on record as “potent CTL activity”. Moreover, in assay [4] (compared to TTK-A2-9-462, TTK-A02-9-547, TTK-A2-9-719 and TTK-A2-10-462 (FIG. 3 vs FIG. 4)), the “Increase in the IFN-gamma production compared to the peptides of WO2008/102557” value is “one or two orders of magnitude”.

“TTK-A02-10-462: 10-mer HLA-A*0201 binding candidate peptide derived from TTK, SEQ ID NO: 22 (YMSCFRTPVV)”: in the assay on peptide-pulsed T2 cells [1], the “IFN-gamma production of CTL lines” value is on record as “potent IFN-gamma production”. Further, the “Specific CTL activity of CTL clones against COS7 transfected with both TTK and HLA-A*0201” value (shortened to “Specific CTL activity of CTL clones”) in assay [5] is given as “specific CTL activity”. In addition, the “IFN-gamma production of peptide-induced CTLs (peptide specific CTL activity)” value in the assay with peptide-pulsed T2 cells [2] is reported as “potent IFN-gamm production”.

Take “TTK-A02-9-564: 9-mer HLA-A*0201 binding candidate peptide derived from TTK, SEQ ID NO: 20 (TLDSYRNEI)”: the “IFN-gamma production of peptide-induced CTLs (peptide specific CTL activity)” value in the assay on peptide-pulsed T2 cells [2] is recorded as “potent IFN-gamm production”.

Turning to “TTK-A02-9-142: 9-mer HLA-A*0201 binding candidate peptide derived from TTK, SEQ ID NO: 15 (FAFVHISFA)”, the “IFN-gamma production of CTL lines” value in the assay on peptide-pulsed T2 cells [1] is on record as “potent IFN-gamma production”. For the same substance, the “IFN-gamma production of peptide-induced CTLs (peptide specific CTL activity)” value in the assay on peptide-pulsed T2 cells [2] was “potent IFN-gamm production”.

For the substance “TTK-A02-9-146: 9-mer HLA-A*0201 binding candidate peptide derived from TTK, SEQ ID NO: 19 (HISFAQFEL)”, in the assay on peptide-pulsed T2 cells [2], the “IFN-gamma production of peptide-induced CTLs (peptide specific CTL activity)” value is on record as “potent IFN-gamm production”.

For the substance “TTK-A02-9-462: 9-mer HLA-A*0201 binding candidate peptide derived from TTK, SEQ ID NO: 1 (YMSCFRTPV)”, the “IFN-gamma production of CTL lines” value with peptide-pulsed T2 cells [1] is listed as “potent IFN-gamma production”. In addition, the “Specific CTL activity of CTL clones” value in assay [5] is reported as “specific CTL activity”. For the same substance, in the assay with peptide-pulsed T2 cells [2], the “IFN-gamma production of peptide-induced CTLs (peptide specific CTL activity)” value is given as “potent IFN-gamm production”.

As to “TTK-A02-10-542: 10-mer HLA-A*0201 binding candidate peptide derived from TTK, SEQ ID NO: 34 (VLNEKKQIYA)”, the “IFN-gamma production of peptide-induced CTLs (peptide specific CTL activity)” value in the assay on peptide-pulsed T2 cells [2] is recorded as “potent IFN-gamm production”.

As to “TTK-A02-9-630: 9-mer HLA-A*0201 binding candidate peptide derived from TTK, SEQ ID NO: 2 (NMLEAVHTI)”, the “IFN-gamma production of CTL lines” value in the assay on peptide-pulsed T2 cells [1] is given as “potent IFN-gamma production”. Further, in the assay on peptide-pulsed T2 cells [2], the “IFN-gamma production of peptide-induced CTLs (peptide specific CTL activity)” value was “potent IFN-gamm production”.

Take “TTK-A02-9-547: 9-mer peptide derived from TTK, SEQ ID NO: 5, disclosed in Applicants' WO2008/102557 (KQIYAIKYV)”: the “Specific CTL activity of CTL clones” value in assay [5] was “specific CTL activity”.

As to “TTK-A02-10-661: 10-mer HLA-A*0201 binding candidate peptide derived from TTK, SEQ ID NO: 35 (KLIDFGIANQ)”, in the assay on peptide-pulsed T2 cells [2], the “IFN-gamma production of peptide-induced CTLs (peptide specific CTL activity)” value is “potent IFN-gamm production”.

Turning to “TTK-A02-9-719: 9-mer HLA-A*0201 binding candidate peptide derived from TTK, SEQ ID NO: 6 (SLGCILYYM)”, in the assay on peptide-pulsed T2 cells [1], the “IFN-gamma production of CTL lines” value is listed as “potent IFN-gamma production”. Also, in assay [5], the “Specific CTL activity of CTL clones” value is on record as “specific CTL activity”. Besides, in the assay on peptide-pulsed T2 cells [2], the “IFN-gamma production of peptide-induced CTLs (peptide specific CTL activity)” value was “potent IFN-gamm production”.
